Measured values as given in patent US20230017045A1, “PYRIDINE AND PYRIMIDINE CARBOXYLATE HERBICIDES AND METHODS OF USE THEREOF” (Dow AgroSciences LLC, priority 2017, published 2023).
Where two headings read alike, the source gives them in different places.

Test system: test plant species
Test: Post-emergent herbicidal activity test (greenhouse, foliar spray, visual growth reduction)
Type: in vivo
Details: post-emergence, 336 h, 140 g ai/ha
In short: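 Seedlings were raised 7-21 d in a greenhouse under a 15 h photoperiod until the first or second true leaf. Each compound, dissolved in acetone:DMSO 97:3 and diluted into a surfactant-containing spray mixture, was then applied at 187 L/ha. Plants were subirrigated, and growth reduction was scored visually at 14 d.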

[1] = ECHCG: barnyardgrass (Echinochloa crus-galli), 14 days after application, read-out: Visual Growth Reduction (%) 14 Days After Application, ECHCG
[2] = IPOHE: ivy-leaf morning glory (Ipomoea hederacea), 14 days after application, read-out: Visual Growth Reduction (%) 14 Days After Application, IPOHE
[3] = KCHSC: kochia (Bassia scoparia), 14 days after application, read-out: Visual Growth Reduction (%) 14 Days After Application, KCHSC
[4] = ORYSA: rice (Oryza sativa), 14 days after application, read-out: Visual Growth Reduction (%) 14 Days After Application, ORYSA
[5] = SETFA: giant foxtail (Setaria faberi), 14 days after application, read-out: Visual Growth Reduction (%) 14 Days After Application, SETFA
[6] = SORVU: grain sorghum (Sorghum vulgare), 14 days after application, read-out: Visual Growth Reduction (%) 14 Days After Application, SORVU
[7] = STEME: common chickweed (Stellaria media), 14 days after application, read-out: Visual Growth Reduction (%) 14 Days After Application, STEME
[8] = TRZAS: wheat, spring (Triticum aestivum), 14 days after application, read-out: Visual Growth Reduction (%) 14 Days After Application, TRZAS
[9] = blackgrass (Alopecurus myosuroides), 14 Days After Application, read-out: Visual Growth Reduction (%) ALOMY
[10] = canada thistle (Cirsium arvense), 14 Days After Application, read-out: Visual Growth Reduction (%) CIRAR
[11] = crabgrass (Digitaria sanguinalis), 14 Days After Application, read-out: Visual Growth Reduction (%) DIGSA
[12] = lambsquarters (Chenopodium album), 14 Days After Application, read-out: Visual Growth Reduction (%) CHEAL
[13] = redroot pigweed (Amaranthus retroflexus), 14 Days After Application, read-out: Visual Growth Reduction (%) AMARE
[14] = wild oat (Avena fatua), 14 Days After Application, read-out: Visual Growth Reduction (%) AVEFA
[15] = yellow nutsedge (Cyperus esculentus), 14 Days After Application, read-out: Visual Growth Reduction (%) CYPES
[16] = ALOMY: blackgrass (Alopecurus myosuroides), 14 days after application, read-out: Visual Growth Reduction (%) 14 Days After Application, ALOMY
[17] = AMARE: redroot pigweed (Amaranthus retroflexus), 14 days after application, read-out: Visual Growth Reduction (%) 14 Days After Application, AMARE
[18] = AVEFA: wild oat (Avena fatua), 14 days after application, read-out: Visual Growth Reduction (%) 14 Days After Application, AVEFA
[19] = CHEAL: lambsquarters (Chenopodium album), 14 days after application, read-out: Visual Growth Reduction (%) 14 Days After Application, CHEAL
[20] = CIRAR: canada thistle (Cirsium arvense), 14 days after application, read-out: Visual Growth Reduction (%) 14 Days After Application, CIRAR
[21] = CYPES: yellow nutsedge (Cyperus esculentus), 14 days after application, read-out: Visual Growth Reduction (%) 14 Days After Application, CYPES
[22] = DIGSA: crabgrass (Digitaria sanguinalis), 14 days after application, read-out: Visual Growth Reduction (%) 14 Days After Application, DIGSA

Measured: pest or weed control at 140 g/ha

COC(=O)c1nc(-c2ccc(F)c(OC)c2)ccc1Cl [F292, Methyl 3-chloro-6-(4-fluoro-3-methoxyphenyl) picolinate]
0 to 29%: [1] | [4] | [5] | [6] | [7] | [8] | [9] | [11] | [13] | [14]
85 to 94%: [12]
60 to 74%: [10] | [15]
30 to 44%: [2]
45 to 59%: [3]

COC(=O)c1nc(-c2ccc(C(F)(F)F)cc2F)c(F)cc1Cl [F158, methyl 3-chloro-5-fluoro-6-(2-fluoro-4-(trifluoromethyl)phenyl)picolinate]
0 to 29%: [16] | [21] | [4] | [7]
85 to 94%: [20] | [22]
95 to 100%: [17] | [19] | [2]
60 to 74%: [3] | [8]
75 to 84%: [5] | [6]
45 to 59%: [1]
30 to 44%: [18]

COC(=O)c1nc(-c2ccc(OS(C)(=O)=O)cc2Cl)ccc1Cl [F288, methyl 3-chloro-6-(2-chloro-4-((methylsulfonyl)oxy)phenyl)picolinate]
75 to 84%: [3] | [11]
0 to 29%: [4] | [7] | [9] | [14] | [15]
30 to 44%: [8]
60 to 74%: [1] | [5]
95 to 100%: [2] | [10]
85 to 94%: [6] | [12] | [13]

COC(=O)c1cc(Cl)cc(-c2ccc(Cl)cc2Cl)n1 [F56, Methyl 4-chloro-6-(2,4-dichlorophenyl) picolinate]
0 to 29%: [16] | [17] | [18] | [19] | [20] | [21] | [22] | [1] | [2] | [3] | [4] | [5] | [6] | [7] | [8]

O=C(O)c1nc(-c2ccc(C(F)(F)F)cc2)c(Cl)cc1Cl [F96, 3,5-Dichloro-6-(4-(trifluoromethyl)phenyl)picolinic acid]
0 to 29%: [16] | [18] | [21] | [22] | [1] | [3] | [4] | [7] | [8]
60 to 74%: [19] | [6]
30 to 44%: [17] | [20]
45 to 59%: [5]
75 to 84%: [2]
